Measured values: US20020155519A1 (priority 1997, published 2002)
“Also recorded” adds a separate entry of the source. Like-named read-outs stand apart in the source and are kept apart here.

Columns and labels:
[1] = system: human blood bacterium (HBB); type: cell-based
Description: Normally 1 ml of serum was added to 9 ml of medium. Larger flasks with a proportionately larger amount of serum and medium are used to produce bacteria in quantity. Modulators might be added to some flasks in 10× or higher concentration (corresponding to addition of 1 ml or less). When examining the effect of modulators, control flasks were prepared similarly without the addition of the modulator. Levels were observed microscopically (inverted phase microscope, observing the number of organisms per field crudely or by actual count) after incubation, typically at several points in time.
When multiple comparisons were done at once, they were done in 12 well or 24 well cell culture plates, most often the latter. With the latter, typically 1 ml of medium inoculated with serum is added to each well, with modulators added at 10× or higher concentration (0.1 ml or less). When comparisons are done in well plates, control wells without any additions are included. Levels were observed microscopically (inverted phase microscope) after incubation, typically at several points in time. The well plate cultures were also used for antibiotic sensitivity testing.
These procedures are those known in the art and include uses of antibodies and DNA probes, Western and Southern blots, PCR and the diagnostic kits therefor. First, organisms can be quantified by culture. […] If a means is found to immobilize the bacteria to grow isolated colonies, counts will be more accurate. Quantification is used to follow the progress of treatment and to correlate HBB levels with specific disease syndromes. Quantification is used also for antibiotic sensitivity measurements, comparing the level of growth with antibiotic treatment to the level of growth without treatment. Such antibiotic sensitivity measurements establish the basis for the clinical choice of antibiotic drugs.

yeast-like forms of HBB = assay: Suppression of yeast-like forms of HBB by antifungal agents; type: cell-based, human blood bacterium (HBB)

CC[C@H]1OC(=O)[C@H](C)[C@@H](O[C@H]2C[C@@](C)(OC)[C@@H](O)[C@H](C)O2)[C@H](C)[C@@H](O[C@@H]2O[C@H](C)C[C@H](N(C)C)[C@H]2O)[C@](C)(O)C[C@@H](C)CN(C)[C@H](C)[C@@H](O)[C@]1(C)O [azothromycin]
antibiotic sensitivity of HBB strains/isolates in culture [1]: some strains show sensitivity; also recorded: often stimulate growth
observed antibiotic and antifungal sensitivities (outcome, number of isolates) [1]: no effect (6 isolates); also recorded: sensitive (7 isolates)

CC1=C(C(=O)O)N2C(=O)[C@@H](NC(=O)[C@H](N)c3ccc(O)cc3)[C@H]2SC1 [cefadroxil]
observed antibiotic and antifungal sensitivities (outcome, number of isolates) [1]: no effect (1 isolate)

CC1=C(C(=O)O)N2C(=O)[C@@H](NC(=O)[C@H](N)c3ccccc3)[C@H]2SC1 [cephalexin]
observed antibiotic and antifungal sensitivities (outcome, number of isolates) [1]: no effect (1 isolate)

CCN(CC)CCCC(C)Nc1ccnc2cc(Cl)ccc12 (centres unmarked) [chloroquin]
antibiotic sensitivity of HBB strains/isolates in culture ([1]; concentration not printed): synergistic effect with a few isolates

O=C(O)c1cn(C2CC2)c2cc(N3CCNCC3)c(F)cc2c1=O [ciprofloxacin]
antibiotic sensitivity of HBB strains/isolates in culture [1]: Some strains are sensitive
observed antibiotic and antifungal sensitivities (outcome, number of isolates) [1]: no effect (5 isolates); also recorded: partially sensitive (1 isolate)

CC[C@H]1OC(=O)[C@H](C)[C@@H](O[C@H]2C[C@@](C)(OC)[C@@H](O)[C@H](C)O2)[C@H](C)[C@@H](O[C@@H]2O[C@H](C)C[C@H](N(C)C)[C@H]2O)[C@](C)(OC)C[C@@H](C)C(=O)[C@H](C)[C@@H](O)[C@]1(C)O [clarithromycin]
antibiotic sensitivity of HBB strains/isolates in culture ([1]; concentration not printed): some strains show sensitivity; also recorded: often stimulate growth
antibiotic sensitivity of HBB strains/isolates in culture ([1]; concentration not printed, listed as Clarithromycin): appears more effective in culture

Clc1ccccc1C(c1ccccc1)(c1ccccc1)n1ccnc1 [clotrimazol]
observed antibiotic and antifungal sensitivities (outcome, number of isolates) [1]: no effect (1 isolate)
suppression of yeast-like forms (yeast-like forms of HBB): no suppression

Cc1onc(-c2ccccc2Cl)c1C(=O)N[C@@H]1C(=O)N2[C@@H]1SC(C)(C)[C@@H]2C(=O)O [cloxacillin]
observed antibiotic and antifungal sensitivities (outcome, number of isolates) ([1]; 2 μg/ml): no effect (16 isolates); also recorded: sensitive (5 isolates); also recorded: growth stimulated (6 isolates)
antibiotic sensitivity of HBB strains/isolates in culture ([1]; concentration not printed): occasional isolates show higher sensitivity

Nc1ccc(S(=O)(=O)c2ccc(N)cc2)cc1 [dapsone]
observed antibiotic and antifungal sensitivities (outcome, number of isolates) [1]: no effect (1 isolate)

CC[C@H]1OC(=O)[C@H](C)[C@@H](O[C@H]2C[C@@](C)(OC)[C@@H](O)[C@H](C)O2)[C@H](C)[C@@H](O[C@@H]2O[C@H](C)C[C@H](N(C)C)[C@H]2O)[C@](C)(O)C[C@@H](C)C(=O)[C@H](C)[C@@H](O)[C@]1(C)O [erythromycin]
antibiotic sensitivity of HBB strains/isolates in culture [1]: resistant

CCN(CCO)CCCC(C)Nc1ccnc2cc(Cl)ccc12 (centres unmarked) [hydroxychloroquin]
antibiotic sensitivity of HBB strains/isolates in culture ([1]; concentration not printed): synergistic effect with a few isolates

NNC(=O)c1ccncc1 [isoniazid]
observed antibiotic and antifungal sensitivities (outcome, number of isolates) ([1]; 2 μg/ml): no effect (24 isolates); also recorded: sensitive (5 isolates); also recorded: growth stimulated (6 isolates)
antibiotic sensitivity of HBB strains/isolates in culture ([1]; concentration not printed): some isolates are sensitive

Clc1ccc(COC(Cn2ccnc2)c2ccc(Cl)cc2Cl)c(Cl)c1 (centres unmarked) [miconazol]
observed antibiotic and antifungal sensitivities (outcome, number of isolates) [1]: no effect (1 isolate)
suppression of yeast-like forms (yeast-like forms of HBB): no suppression

CCn1cc(C(=O)O)c(=O)c2ccc(C)nc21 [nalidixic acid]
observed antibiotic and antifungal sensitivities (outcome, number of isolates) ([1]; 4 μg/ml): no effect (1 isolate)

C[C@@H]1[C@H](O)[C@@H](C)/C=C/C=C/CC/C=C/C=C/C=C/C=C/C(O[C@H]2O[C@H](C)[C@@H](O)[C@H](N)[C@@H]2O)CC2O[C@](O)(CC(O)C(O)CCC(O)CC(O)CC(O)CC(=O)O[C@H]1C)CC(O)C2C(=O)O (some centres unmarked) [nystatin]
observed antibiotic and antifungal sensitivities (outcome, number of isolates) ([1]; saturated): no effect (1 isolate)
suppression of yeast-like forms (yeast-like forms of HBB): no suppression

Cc1onc(-c2ccccc2)c1C(=O)N[C@@H]1C(=O)N2[C@@H]1SC(C)(C)[C@@H]2C(=O)O [oxacillin]
antibiotic sensitivity of HBB strains/isolates in culture [1]: occasional isolates show higher sensitivity

CC1(C)S[C@@H]2[C@H](NC(=O)Cc3ccccc3)C(=O)N2[C@H]1C(=O)O [penicillin G]
antibiotic sensitivity of HBB strains/isolates in culture ([1]; concentration not printed): relatively sensitive

CC1(C)S[C@@H]2[C@H](NC(=O)COc3ccccc3)C(=O)N2[C@H]1C(=O)O [penicillin V]
observed antibiotic and antifungal sensitivities (outcome, number of isolates) ([1]; 1-2 μg/ml): no effect (27 isolates); also recorded: sensitive (17 isolates); also recorded: growth stimulated (4 isolates)
antibiotic sensitivity of HBB strains/isolates in culture ([1]; concentration not printed): relatively sensitive

COc1cc(NC(C)CCCN)c2ncccc2c1 (centres unmarked) [primaquine]
observed antibiotic and antifungal sensitivities (outcome, number of isolates) [1]: no effect (31 isolates); also recorded: sensitive (15 isolates); also recorded: growth stimulated (1 isolate)

CCN(CC)CCCC(C)Nc1c2ccc(Cl)cc2nc2ccc(OC)cc12 (centres unmarked) [quinacrine]
observed antibiotic and antifungal sensitivities (outcome, number of isolates) [1]: no effect (1 isolate)

O=C([O-])c1ccccc1.[Na+] [sodium benzoate]
observed antibiotic and antifungal sensitivities (outcome, number of isolates) ([1]; 50 μg/ml): no effect (1 effect)
suppression of yeast-like forms (yeast-like forms of HBB): no suppression

CCC(=O)[O-].[Na+] [sodium propionate]
observed antibiotic and antifungal sensitivities (outcome, number of isolates) ([1]; 50-250 μg/ml): no effect (2 isolates)
suppression of yeast-like forms (yeast-like forms of HBB): no suppression

Cc1cc(NS(=O)(=O)c2ccc(N)cc2)no1 [sulfamethoxazole]
antibiotic sensitivity of HBB strains/isolates in culture [1]: no effect (1 isolate)

Nc1ccc(S(=O)(=O)Nc2ccccn2)cc1 [sulfapyridine]
observed antibiotic and antifungal sensitivities (outcome, number of isolates) [1]: no effect (6 isolates); also recorded: no effect (1 isolate)

O=C(O)c1cc(/N=N/c2ccc(S(=O)(=O)Nc3ccccn3)cc2)ccc1O [sulfasalazine]
observed antibiotic and antifungal sensitivities (outcome, number of isolates) [1]: no effect (6 isolates); also recorded: no effect (isolate)

Cc1cccc(N(C)C(=S)Oc2ccc3ccccc3c2)c1 [tolnaftate]
observed antibiotic and antifungal sensitivities (outcome, number of isolates) ([1]; 2 μg/ml): no effect (1 isolate)

COc1cc(Cc2cnc(N)nc2N)cc(OC)c1OC [trimethoprim]
antibiotic sensitivity of HBB strains/isolates in culture [1]: resistance
observed antibiotic and antifungal sensitivities (outcome, number of isolates) [1]: no effect (1 isolate)

CN[C@H](CC(C)C)C(=O)N[C@H]1C(=O)N[C@@H](CC(N)=O)C(=O)N[C@H]2C(=O)N[C@H]3C(=O)N[C@H](C(=O)N[C@H](C(=O)O)c4cc(O)cc(O)c4-c4cc3ccc4O)[C@H](O)c3ccc(c(Cl)c3)Oc3cc2cc(c3O[C@@H]2O[C@H](CO)[C@@H](O)[C@H](O)[C@H]2O[C@H]2C[C@](C)(N)[C@H](O)[C@H](C)O2)Oc2ccc(cc2Cl)[C@H]1O [vancomycin]
observed antibiotic and antifungal sensitivities (outcome, number of isolates) [1]: no effect (1 isolate)

gentamycin
observed antibiotic and antifungal sensitivities (outcome, number of isolates) ([1]; 2 μg/ml): no effect (1 isolate)
